Experimental data taken from article PMC9228270, “Design, Synthesis, In Silico Studies and Inhibitory Activity towards Bcr-Abl, BTK and FLT3-ITD of New 2,6,9-Trisubstituted Purine Derivatives as Potential Agents for the Treatment of Leukaemia” (Pharmaceutics, 2022).
Several values for one entry are separate records, joined by “and”; a condition that tells them apart may be missing. Identical values can stand only once. Like-named read-outs stand apart in the source and are kept apart here.

Experiments:
[1] = target: Bcr-Abl1 (Homo sapiens, UniProt P00519); experiment: Recombinant kinase radioassay, Abl; type: biochemical; settings: ATP 1 µM, at least three independent experiments, range 0.01–100 µM
Bcr-Abl1, sequence (P00519 27-1130): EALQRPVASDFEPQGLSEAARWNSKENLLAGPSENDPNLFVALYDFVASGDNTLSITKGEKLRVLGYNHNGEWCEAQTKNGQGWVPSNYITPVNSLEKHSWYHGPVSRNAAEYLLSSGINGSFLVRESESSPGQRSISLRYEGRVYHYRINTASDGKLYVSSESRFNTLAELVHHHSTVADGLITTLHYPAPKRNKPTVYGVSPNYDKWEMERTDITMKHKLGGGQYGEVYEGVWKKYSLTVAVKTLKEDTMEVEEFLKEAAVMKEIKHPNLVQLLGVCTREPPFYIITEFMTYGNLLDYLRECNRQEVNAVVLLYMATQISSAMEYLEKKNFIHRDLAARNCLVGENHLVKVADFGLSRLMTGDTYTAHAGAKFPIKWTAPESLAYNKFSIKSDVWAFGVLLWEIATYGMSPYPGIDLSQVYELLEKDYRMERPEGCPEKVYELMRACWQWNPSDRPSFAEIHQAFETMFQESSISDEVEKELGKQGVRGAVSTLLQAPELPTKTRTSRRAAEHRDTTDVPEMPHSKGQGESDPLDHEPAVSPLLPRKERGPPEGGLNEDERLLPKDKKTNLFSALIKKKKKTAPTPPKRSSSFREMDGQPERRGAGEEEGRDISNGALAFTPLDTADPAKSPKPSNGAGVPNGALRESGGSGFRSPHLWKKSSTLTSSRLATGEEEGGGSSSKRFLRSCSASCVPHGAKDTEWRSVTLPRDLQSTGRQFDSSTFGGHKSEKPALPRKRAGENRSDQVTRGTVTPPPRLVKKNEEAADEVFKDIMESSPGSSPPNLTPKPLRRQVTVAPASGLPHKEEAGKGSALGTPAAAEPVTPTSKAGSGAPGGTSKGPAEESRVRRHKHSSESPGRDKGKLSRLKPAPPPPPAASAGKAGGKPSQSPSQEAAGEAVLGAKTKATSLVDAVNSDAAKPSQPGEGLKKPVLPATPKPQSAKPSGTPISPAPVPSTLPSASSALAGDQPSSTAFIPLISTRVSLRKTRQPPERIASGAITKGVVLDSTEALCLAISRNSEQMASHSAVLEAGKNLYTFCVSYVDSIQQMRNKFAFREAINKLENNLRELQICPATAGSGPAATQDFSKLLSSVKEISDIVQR
Experimental: (§1) Recombinant kinase inhibition was measured using standard radioassay. Bcr-Abl1 and Cdk-2/cyclin E kinases were produced in-house, FLT3-ITD and BTK were purchased from ProQinase. The kinases were assayed with suitable substrates (500 µM peptide […] for Abl, 1 mg/mL histone H1 for Cdk-2, 100 µM poly (Glu:Tyr; 4:1)) in the presence of ATP (1 µM for Bcr-Abl, 15 µM for Cdk-2 and BTK), 0.05 µCi [γ-^33P]ATP and the test compound in reaction buffer (60 mM HEPES-NaOH, pH 7.5, 3 mM MgCl2, 3 mM MnCl2, 3 µM Na orthovanadate, 1.2 mM DTT, 2.5 µg/50 µL PEG20.000). The reactions were stopped by adding 3% aq. H3PO4. P-81 phosphocellulose (Whatman) was used to separate phosphorylated substrates. Kinase activity was quantified using a FLA-7000 digital image analyser.

[2] = target: T1, BTK (Homo sapiens, UniProt Q06187); experiment: Recombinant kinase radioassay, BTK; type: biochemical
T1 construct: purchased ProQinase
T1 sequence (Q06187 whole entry): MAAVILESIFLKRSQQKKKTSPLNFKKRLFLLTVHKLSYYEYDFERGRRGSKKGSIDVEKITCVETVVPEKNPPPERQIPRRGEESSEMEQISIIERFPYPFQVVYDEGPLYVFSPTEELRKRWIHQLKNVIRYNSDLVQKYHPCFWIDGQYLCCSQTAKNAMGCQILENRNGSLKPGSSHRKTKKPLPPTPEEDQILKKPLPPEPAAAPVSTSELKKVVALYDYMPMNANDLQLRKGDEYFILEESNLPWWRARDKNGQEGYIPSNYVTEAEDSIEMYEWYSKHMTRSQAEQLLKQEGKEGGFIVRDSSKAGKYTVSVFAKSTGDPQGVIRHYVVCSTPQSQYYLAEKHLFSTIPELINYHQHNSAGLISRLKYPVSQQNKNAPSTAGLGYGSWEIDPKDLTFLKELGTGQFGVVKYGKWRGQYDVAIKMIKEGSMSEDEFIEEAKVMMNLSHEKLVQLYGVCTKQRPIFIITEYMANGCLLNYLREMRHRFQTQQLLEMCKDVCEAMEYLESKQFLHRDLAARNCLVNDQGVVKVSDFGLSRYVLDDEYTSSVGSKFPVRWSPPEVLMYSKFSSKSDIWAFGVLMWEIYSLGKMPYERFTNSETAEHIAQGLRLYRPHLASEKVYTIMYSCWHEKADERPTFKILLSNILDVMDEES
Experimental: as §1

[3] = target: T2, FLT3-ITD (Homo sapiens, UniProt P36888, ITD); experiment: Recombinant kinase radioassay, FLT3-ITD; type: biochemical
T2 sequence (P36888 27-993): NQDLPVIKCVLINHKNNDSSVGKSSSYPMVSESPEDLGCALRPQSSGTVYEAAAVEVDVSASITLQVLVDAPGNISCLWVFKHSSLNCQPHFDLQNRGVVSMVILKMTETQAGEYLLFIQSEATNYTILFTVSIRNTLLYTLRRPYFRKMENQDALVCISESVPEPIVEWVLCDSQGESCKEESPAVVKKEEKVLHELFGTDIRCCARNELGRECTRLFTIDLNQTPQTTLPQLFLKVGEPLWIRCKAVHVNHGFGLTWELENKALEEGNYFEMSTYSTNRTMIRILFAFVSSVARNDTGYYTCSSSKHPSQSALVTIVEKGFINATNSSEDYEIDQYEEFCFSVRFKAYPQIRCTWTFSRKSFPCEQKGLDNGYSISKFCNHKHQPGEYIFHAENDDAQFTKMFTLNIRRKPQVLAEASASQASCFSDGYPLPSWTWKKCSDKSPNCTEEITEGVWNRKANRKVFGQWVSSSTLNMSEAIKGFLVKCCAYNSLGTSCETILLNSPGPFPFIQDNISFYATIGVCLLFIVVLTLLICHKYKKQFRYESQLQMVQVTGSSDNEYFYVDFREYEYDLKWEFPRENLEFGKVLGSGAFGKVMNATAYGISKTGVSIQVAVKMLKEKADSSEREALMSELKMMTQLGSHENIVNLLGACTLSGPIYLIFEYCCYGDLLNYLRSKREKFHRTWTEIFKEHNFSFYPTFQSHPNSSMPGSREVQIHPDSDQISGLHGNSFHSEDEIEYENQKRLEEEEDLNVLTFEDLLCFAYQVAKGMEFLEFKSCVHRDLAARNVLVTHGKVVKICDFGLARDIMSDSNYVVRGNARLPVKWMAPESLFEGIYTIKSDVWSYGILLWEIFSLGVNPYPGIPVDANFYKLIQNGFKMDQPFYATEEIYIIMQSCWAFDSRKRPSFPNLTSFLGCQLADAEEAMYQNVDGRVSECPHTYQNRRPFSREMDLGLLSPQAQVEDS
Experimental: as §1

[4] = target: T3, Cdk-2/cyclin E (Homo sapiens, UniProt P24941); experiment: Recombinant kinase radioassay, Cdk-2/cyclin E; type: biochemical; settings: ATP 15 µM, at least three independent experiments, range 0.01–100 µM
T3 construct: made in house
Experimental: as §1

[5] = tested on: K562; experiment: Cytotoxicity assay (resazurin), K562; type: cell-based; settings: Homo sapiens, 72 h, three independent experiments, range 0.1 to 25 µM
Experimental: (§2) Cytotoxicity assays for the purines were quantified using the resazurin method, a dye to measure redox reactions occurring in the mitochondria of live cells. The cells were treated by tested compounds (in triplicate, six different doses) for 72 h.

[6] = tested on: HL-60; experiment: Cytotoxicity assay (resazurin), HL-60; type: cell-based; settings: Homo sapiens, 72 h, three independent experiments, range 0.1 to 25 µM
Experimental: as §2

[7] = tested on: MV4-11; experiment: Cytotoxicity assay (resazurin), MV4-11; type: cell-based; settings: Homo sapiens, 72 h, three independent experiments, range 0.1 to 25 µM
Experimental: as §2

[8] = tested on: Ramos; experiment: Cytotoxicity assay (resazurin), Ramos; type: cell-based; settings: Homo sapiens, 72 h, three independent experiments, range 0.1 to 25 µM
Experimental: as §2

[9] = tested on: CEM; experiment: Cytotoxicity assay (resazurin), CEM; type: cell-based; settings: Homo sapiens, CCRF-CEM, 72 h, three independent experiments, range 0.1 to 25 µM
Experimental: as §2

[10] = recombinant kinase, radioassay, ATP 15 µM, at least three independent experiments, range 0.01–100 µM, read-out: IC50 BTK
[11] = recombinant kinase, radioassay, at least three independent experiments, range 0.01–100 µM, read-out: IC50 FLT3-ITD

SMILES	IC50 [1]	IC50 [2, 10]	IC50 [3, 11]	IC50 [4]	GI50 [5]	GI50 [6]	GI50 [7]	GI50 [8]	GI50 [9]	melting point	IC50 ([2]; -log IC50 in molar concentration, Table S3, read-out: Experimental pIC50, CoMFA BTK (converted))	IC50 ([3]; -log IC50 in molar concentration, Table S3, read-out: Experimental pIC50, CoMFA FLT3 (converted))
CCCCCn1cnc2c(Nc3ccccc3)nc(Nc3ccc(N4CCN(C)CC4)cc3)nc21 [Compound 5d, N^2-(4-(4-Methylpiperazin-1-yl)phenyl)-9-pentyl-N^6-phenyl-9H-purine-2,6-diamine]	1.23 ± 0.02 µM	< 0.58 µM and 0.42 µM	0.46 µM	31.1 ± 2.91 µM	6.7 ± 2.48 µM	3.98 ± 1.06 µM	1.28 ± 0.38 µM	13.8 ± 3.13 µM	19.1 ± 3.39 µM	138.5 to 141.3 °C		
CN1CCN(c2ccc(Nc3nc(Nc4ccc(Cl)c(Cl)c4)c4ncn(CC5CC5)c4n3)cc2)CC1 [Compound 4n, 9-(Cyclopropylmethyl)-N^6-(3,4-dichlorophenyl)-N^2-(4-(4-methylpiperazin-1-yl)phenyl)-9H-purine-2,6-diamine]	0.07 ± 0.01 µM	3.9 ± 0.05 µM	2.53 µM	12.9 ± 1.7 µM	5.54 ± 1.56 µM	1.52 ± 0.34 µM	4.81 ± 1.54 µM	8.02 ± 1.3 µM	17.54 ± 0.08 µM	132 to 133 °C		
CN1CCN(c2ccc(Nc3nc(Nc4ccc([N+](=O)[O-])cc4)c4ncn(CC5CC5)c4n3)cc2)CC1 [Compound 4j, 9-(Cyclopropylmethyl)-N^2-(4-(4-methylpiperazin-1-yl)phenyl)-N^6-(4-nitrophenyl)-9H-purine-2,6-diamine]	0.54 ± 0.02 µM	0.94 ± 0.04 µM	0.53 µM	23.8 ± 6.05 µM	2.84 ± 1.04 µM	0.42 ± 0.08 µM	2.21 ± 0.71 µM	1.3 ± 0.5 µM	2.52 ± 0.29 µM	162 to 163 °C		
CCCCCCCCn1cnc2c(Nc3cccc(F)c3)nc(Nc3ccc(N4CCN(C)CC4)cc3)nc21 [Compound 5k, N^6-(3-Fluorophenyl)-N^2-(4-(4-methylpiperazin-1-yl)phenyl)-9-octyl-9H-purine-2,6-diamine]	> 100 µM	0.97 ± 0.22 µM	> 20 µM	25.6 ± 3.27 µM	10 ± 6.31 µM	2.16 ± 0.48 µM	12.4 ± 3.93 µM	15.7 ± 0.37 µM	21.3 ± 0.31 µM	181.2 to 183.6 °C		
CN1CCN(c2ccc(Nc3nc(Nc4ccc(F)c(Cl)c4)c4ncn(CC5CC5)c4n3)cc2)CC1 [Compound 4m, N^6-(3-Chloro-4-fluorophenyl)-9-(cyclopropylmethyl)-N^2-(4-(4-methylpiperazin-1-yl)phenyl)-9H-purine-2,6-diamine]	0.27 ± 0.05 µM	2.39 ± 0.43 µM	1.54 µM	10.8 ± 3.84 µM	2.57 ± 0.52 µM	0.86 ± 0.11 µM	1.88 ± 0.06 µM	7.52 ± 0.41 µM	13.3 ± 1.58 µM	153 to 155 °C		
CN1CCN(c2ccc(Nc3nc(Nc4ccc(Cl)c(F)c4)c4ncn(CC5CC5)c4n3)cc2)CC1 [Compound 4l, N^6-(4-Chloro-3-fluorophenyl)-9-(cyclopropylmethyl)-N^2-(4-(4-methylpiperazin-1-yl)phenyl)-9H-purine-2,6-diamine]	0.2 ± 0.05 µM	0.88 ± 0.19 µM	1.03 µM	26.6 ± 3.37 µM	3.45 ± 1.61 µM	3.22 ± 0.74 µM	2.56 ± 0.64 µM	11.2 ± 2.64 µM	15.4 ± 0.55 µM	149 to 150 °C		
CC(C)CCn1cnc2c(Nc3ccccc3)nc(Nc3ccc(N4CCN(C)CC4)cc3)nc21 [Compound 5a, 9-Isopentyl-N^2-(4-(4-methylpiperazin-1-yl)phenyl)-N^6-phenyl-9H-purine-2,6-diamine]	1.78 ± 0.2 µM	2.22 ± 0.96 µM	0.23 µM	22.1 ± 0.38 µM	8.93 ± 5.52 µM	1.52 ± 0.61 µM	0.73 ± 0.25 µM	10.1 ± 2.98 µM	16.4 ± 2.41 µM	153.1 to 155.2 °C		
CN1CCN(c2ccc(Nc3nc(Nc4ccccc4)c4ccn(CC5CC5)c4n3)cc2)CC1 [Compound 12, 7-(Cyclopropylmethyl)-N^2-(4-(4-Methylpiperazin-1-yl)Phenyl)-N^4-Phenyl-7H-pyrrolo[2,3-d]Pyrimidine-2,4-Diamine]	62.3 ± 12.1 µM	> 20 µM	> 20 µM	46.2 ± 1.49 µM	6.38 ± 1.14 µM	3.58 ± 0.65 µM	8.28 ± 2.9 µM	12.8 ± 0.61 µM	15.5 ± 1.46 µM	102.3 to 105.5 °C	2.39 µM	1.54 µM
CCCCCCn1cnc2c(Nc3ccccc3)nc(Nc3ccc(N4CCN(C)CC4)cc3)nc21 [Compound 5g, 9-Hexyl-N^2-(4-(4-methylpiperazin-1-yl)phenyl)-N^6-phenyl-9H-purine-2,6-diamine]	9.82 ± 1.87 µM	0.91 ± 0.02 µM	1.91 µM	27.9 ± 1.04 µM	15.5 ± 4.98 µM	6.11 ± 0.76 µM	4.27 ± 1.45 µM	22.5 ± 1.23 µM	34.7 ± 1.37 µM	155.8 to 160 °C		
CCCCCCn1cnc2c(Nc3cccc(F)c3)nc(Nc3ccc(N4CCN(C)CC4)cc3)nc21 [Compound 5h, N^6-(3-Fluorophenyl)-9-hexyl-N^2-(4-(4-methylpiperazin-1-yl)phenyl)-9H-purine-2,6-diamine]	> 100 µM	0.32 ± 0.01 µM	2.31 µM	80.8 ± 12.5 µM	24.7 ± 0.41 µM	8.77 ± 3.84 µM	3.54 ± 1.53 µM	> 25 µM	> 25 µM	147.1 to 149.9 °C		
CN1CCN(c2ccc(Nc3nc(Nc4cccc(OC(F)(F)F)c4)c4ncn(CC5CC5)c4n3)cc2)CC1 [Compound 4e, 9-(Cyclopropylmethyl)-N^2-(4-(4-methylpiperazin-1-yl)phenyl)-N^6-(3-(trifluoromethoxy)phenyl)-9H-purine-2,6-diamine]	0.42 ± 0.1 µM	4.12 ± 0.9 µM	2.32 µM	47.7 ± 19.4 µM	5.18 ± 1.68 µM	1.4 ± 0.13 µM	2.88 ± 0.01 µM	12.84 ± 0.03 µM	19.5 ± 0.61 µM	161 to 162 °C		
CN1CCN(c2ccc(Nc3nc(Nc4cccc([N+](=O)[O-])c4)c4ncn(CC5CC5)c4n3)cc2)CC1 [Compound 4g, 9-(Cyclopropylmethyl)-N^2-(4-(4-methylpiperazin-1-yl)phenyl)-N^6-(3-nitrophenyl)-9H-purine-2,6-diamine]	0.11 ± 0.01 µM	1.36 ± 0.16 µM	1.25 µM	5.62 ± 0.52 µM	2.93 ± 0.59 µM	8.51 ± 1.79 µM	1.98 ± 0.46 µM	4.87 ± 0.01 µM	11.5 ± 3.93 µM	165 to 166 °C		
CN1CCN(c2ccc(Nc3nc(Nc4ccc(OC(F)(F)F)cc4)c4ncn(CC5CC5)c4n3)cc2)CC1 [Compound 4h, 9-(Cyclopropylmethyl)-N^2-(4-(4-methylpiperazin-1-yl)phenyl)-N^6-(4-(trifluoromethoxy)phenyl)-9H-purine-2,6-diamine]	0.39 ± 0.08 µM	0.6 ± 0.22 µM	0.75 µM	18.2 ± 2.05 µM	2.9 ± 0.91 µM	1.08 ± 0.31 µM	2.45 ± 0.09 µM	11.7 ± 2.88 µM	15 ± 0.92 µM	161 to 162 °C		
